Results: publication PMC10743905, “Design, Synthesis, and In Vitro and In Vivo Bioactivity Studies of Hydrazide–Hydrazones of 2,4-Dihydroxybenzoic Acid” (International Journal of Molecular Sciences, 2023)
In brackets after ≈: the same amount, converted by molar mass.

What was measured:
[1] = system: Staphylococcus epidermidis ATCC 12228; experiment: Broth microdilution MIC/MBC; format: cell-based; conditions: for MBC: ATCC12228; for MIC: ATCC12228, read-out: MIC
Procedure, shortened: (§1)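 Two-fold dilution series (final 1000–0.488 µg/ml) set up in Mueller-Hinton or RPMI 1640/MOPS broth. Suspensions in 0.85% NaCl at 0.5 McFarland were added to each well.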

[2] = system: Micrococcus luteus ATCC 10240; experiment: Broth microdilution MIC/MBC; format: cell-based; conditions: for MBC: ATCC10240; for MIC: ATCC10240, read-out: MIC
Procedure, shortened: as §1

[3] = system: Proteus mirabilis ATCC 12453; experiment: Broth microdilution MIC/MBC; format: cell-based; conditions: ATCC12453
Procedure, shortened: as §1

[4] = system: Staphylococcus aureus ATCC 43300; experiment: Broth microdilution MIC/MBC; format: cell-based; conditions: Staphylococcus aureus ATCC 43300 (MRSA)
Procedure, shortened: as §1

[5] = system: Staphylococcus aureus ATCC 29213; experiment: Broth microdilution MIC/MBC; format: cell-based; conditions: for MBC / MIC: ATCC29213
Procedure, shortened: as §1

[6] = system: Salmonella typhimurium ATCC 14028; experiment: Broth microdilution MIC/MBC; format: cell-based; conditions: Salmonella enterica
Procedure, shortened: as §1

[7] = system: Pseudomonas aeruginosa ATCC 9027; experiment: Broth microdilution MIC/MBC; format: cell-based; conditions: ATCC9027
Procedure, shortened: as §1

[8] = system: Candida albicans ATCC 10231; experiment: Broth microdilution MIC/MFC; format: cell-based; conditions: for MIC: ATCC10231, read-out: MIC; for MFC: ATCC10231, read-out: MFC
Procedure, shortened: as §1

[9] = system: Candida glabrata ATCC 90030; experiment: Broth microdilution MIC/MFC; format: cell-based; conditions: Nakaseomyces glabratus, ATCC90030, read-out: MIC
Procedure, shortened: as §1

[10] = system: Candida parapsilosis ATCC 22019; experiment: Broth microdilution MIC/MFC; format: cell-based; conditions: for MIC: ATCC22019, read-out: MIC
Procedure, shortened: as §1

[11] = system: Candida albicans ATCC 2091; experiment: Broth microdilution MIC/MFC; format: cell-based; conditions: for MIC: ATCC2091, read-out: MIC
Procedure, shortened: as §1

[12] = system: Candida krusei ATCC 14243; experiment: Broth microdilution MIC/MFC; format: cell-based; conditions: Pichia kudriavzevii, ATCC14243, read-out: MIC
Procedure, shortened: as §1

[13] = system: Klebsiella pneumoniae ATCC 13883; experiment: Broth microdilution MIC/MBC; format: cell-based; conditions: ATCC13883
Procedure, shortened: as §1

[14] = system: Bacillus cereus ATCC 10876; experiment: Broth microdilution MIC/MBC; format: cell-based; conditions: for MBC: ATCC10876; for MIC: ATCC10876, read-out: MIC
Procedure, shortened: as §1

[15] = system: Bordetella bronchiseptica ATCC 4617; experiment: Broth microdilution MIC/MBC; format: cell-based
Procedure, shortened: as §1

[16] = system: Enterococcus faecalis ATCC 29212; experiment: Broth microdilution MIC/MBC; format: cell-based; conditions: for MIC: ATCC29212, read-out: MIC
Procedure, shortened: as §1

[17] = system: Escherichia coli ATCC 25922; experiment: Broth microdilution MIC/MBC; format: cell-based; conditions: ATCC25922
Procedure, shortened: as §1

[18] = system: reference Gram-positive bacteria; experiment: Broth microdilution, summary over the Gram-positive panel; format: cell-based; conditions: read-out: MIC
Source text: (§2) In vitro antimicrobial activity assays - Methodology
(§3) The examined compounds 1 - 24 were screened in vitro for antibacterial and antifungal activities using the broth microdilution method according to procedure reported earlier by our research group and European Committee on Antimicrobial Susceptibility Testing (EUCAST) and Clinical and Laboratory Standards Institute (CLSI) guidelines against a panel of reference and clinical or saprophytic strains of microorganisms, in-cluding Gram-positive bacteria, Staphylococcus aureus ATCC 43300 (Methicillin Resistant S. aureus – MRSA), Staphylococcus aureus ATCC 29213 (Methicillin Susceptible S. aureus – MSSA), Staphylococcus epidermidis ATCC 12228, Enterococcus faecalis ATCC 29212, Micro-coccus luteus ATCC 10240, Bacillus subtilis ATCC 6633 and Bacillus cereus ATCC 10876), Gram-negative bacteria (Bordetella bronchiseptica ATCC 4617, Escherichia coli ATCC 25922, Klebsiella pneumoniae ATCC 13883, Proteus mirabilis ATCC 12453, Salmonella typhimurium ATCC 14028 and Pseudomonas aeruginosa ATCC 9027) and fungi belonging to yeasts (Can-dida albicans ATCC 10231, Candida albicans ATCC 2091, Candida parapsilosis ATCC 22019, Candida glabrata ATCC 90030 and Candida krusei ATCC 14243). The microorganisms be-longing to ATCC came from American Type Culture Collection, routinely used for the evaluation of antimicrobials. […]
Samples containing examined compounds were dissolved in dimethyl sulfoxide (DMSO). […]
(§4) Subsequently, the MIC (Minimal Inhibitory Concentration) of the compounds was ex-amined by the microdilution broth method, using their two-fold dilutions in Mueller- […]
(§5) Hinton broth or (for bacteria) and RPMI 1640 broth with MOPS (for fungi) prepared in 96-well polystyrene plates. Final concentrations of the compounds ranged from 1000 to 0.488 µg/ml. Microbial suspensions were prepared in 0.85% NaCl with an optical density of 0.5 McFarland standard. Next each bacterial or fungal suspension was added per each well containing broth and various concentrations of the examined compounds. After incuba-

[19] = system: Bacillus subtilis ATCC 6633; experiment: Broth microdilution MIC/MBC; format: cell-based; conditions: for MBC: ATCC6633; for MIC: ATCC6633, read-out: MIC
Procedure, shortened: as §1

[20] = system: Gram-negative bacteria; experiment: Broth microdilution, summary over the Gram-negative panel; format: cell-based
Source text: as §2
as §3, with “antimicrobials. All the used microbial cultures were first subcultured on nu-trient agar or Sabouraud agar at 35°C for 18-24 h or 30°C for 24-48 h for bacteria and fungi,” for “antimicrobials.”
The surface of Mueller-Hinton agar (for bacteria) and RPMI 1640 with MOPS (for fungi) were inoculated with the suspensions of bacterial or fungal species. Microbial suspensions were prepared in sterile saline with an optical density of McFarland standard scale 0.5.
Samples containing examined compounds were dissolved in dimethyl sulfoxide (DMSO).
Furthermore, bacterial and fungal suspensions were put onto Petri dishes with solid me-dia containing 2 mg/mL of the tested compounds followed incubation at 37°C for 24h and 30°C for 48h for bacteria and fungi, respectively. The inhibition of microbial growth was judged by comparison with a control culture prepared without any sample tested. Ciprof-loxacin, vancomycin, nitrofurantoin, cefuroxime, ampicillin or nystatin (Sigma) were used as a reference antibacterial or antifungal compounds, respectively.
as §4, §5

O=C(N/N=C/c1ccc(O)c(Br)c1)c1ccc(O)cc1O [Compound 11, N-[(3-bromo-4-hydroxyphenyl)methylidene]-2,4-dihydroxybenzohydrazide]
MBC/MIC [1]: 2
MBC [1]: 1000 µg/mL (≈ 2.85 mM)
MIC [1]: 500 µg/mL (≈ 1.42 mM)
MBC/MIC [2]: > 8
MBC [2]: > 1000 µg/mL
MIC [2]: 125 µg/mL (≈ 0.356 mM)
MIC [3]: > 1000 µg/mL
MBC [4]: 1000 µg/mL (≈ 2.85 mM)
MBC/MIC [4]: 2
MIC [4]: 500 µg/mL (≈ 1.42 mM)
MBC/MIC [5]: > 4
MBC [5]: > 1000 µg/mL
MIC [5]: 250 µg/mL (≈ 0.712 mM)
MIC [6]: > 1000 µg/mL
MIC [7]: > 1000 µg/mL
MIC [8]: > 1000 µg/mL
MIC [9]: > 1000 µg/mL
MIC ([10]; Lodderomyces parapsilosis): > 1000 µg/mL
MIC [11]: > 1000 µg/mL
MIC [12]: > 1000 µg/mL
MIC [13]: > 1000 µg/mL
MBC/MIC [14]: > 4
MBC [14]: > 1000 µg/mL
MIC [14]: 250 µg/mL (≈ 0.712 mM)
MIC ([15]; ATCC4617): > 1000 µg/mL
MBC/MIC [16]: > 2
MBC ([16]; ATCC29212, read-out: MBC): > 1000 µg/mL
MIC [16]: 500 µg/mL (≈ 1.42 mM)
MIC [17]: > 1000 µg/mL
melting point: 232 °C
MIC [18]: 15.6 to 1000 µg/mL (≈ 0.0445 to 2.85 mM)
MBC/MIC [19]: > 2
MBC [19]: > 1000 µg/mL
MIC [19]: 500 µg/mL (≈ 1.42 mM)

CCCOc1ccc(/C=N/NC(=O)c2ccc(O)cc2O)cc1 [Compound 6, 2,4-dihydroxy-N-[(4-propoxyphenyl)methylidene]benzohydrazide]
MBC/MIC [1]: > 1
MBC [1]: > 1000 µg/mL
MIC [1]: 1000 µg/mL (≈ 3.18 mM)
MBC/MIC [2]: > 1
MBC [2]: > 1000 µg/mL
MIC [2]: 1000 µg/mL (≈ 3.18 mM)
MIC [3]: > 1000 µg/mL
MBC [4]: > 1000 µg/mL
MBC/MIC [4]: > 1
MIC [4]: 1000 µg/mL (≈ 3.18 mM)
MBC/MIC [5]: > 1
MBC [5]: > 1000 µg/mL
MIC [5]: 1000 µg/mL (≈ 3.18 mM)
MIC [6]: > 1000 µg/mL
MIC [7]: > 1000 µg/mL
MFC/MIC [8]: > 1
MFC [8]: > 1000 µg/mL
MIC [8]: 1000 µg/mL (≈ 3.18 mM)
MIC [9]: > 1000 µg/mL
MFC/MIC [10]: > 1
MFC ([10]; Lodderomyces parapsilosis, ATCC22019, read-out: MFC): > 1000 µg/mL
MIC ([10]; Lodderomyces parapsilosis): 1000 µg/mL (≈ 3.18 mM)
MFC/MIC [11]: > 2
MFC ([11]; ATCC2091, read-out: MFC): > 1000 µg/mL
MIC [11]: 500 µg/mL (≈ 1.59 mM)
MIC [12]: > 1000 µg/mL
MIC [13]: > 1000 µg/mL
MBC/MIC [14]: > 1
MBC [14]: > 1000 µg/mL
MIC [14]: 1000 µg/mL (≈ 3.18 mM)
MIC ([15]; ATCC4617): > 1000 µg/mL
MIC [16]: > 1000 µg/mL
MIC [17]: > 1000 µg/mL
melting point: 251 °C
MBC/MIC [19]: > 1
MBC [19]: > 1000 µg/mL
MIC [19]: 1000 µg/mL (≈ 3.18 mM)

CCOc1cc(/C=N/NC(=O)c2ccc(O)cc2O)ccc1OC [Compound 14, N-[(3-ethoxy-4-methoxyphenyl)methylidene]-2,4-dihydroxybenzohydrazide]
MIC [1]: > 1000 µg/mL
MBC/MIC [2]: > 8
MBC [2]: > 1000 µg/mL
MIC [2]: 125 µg/mL (≈ 0.378 mM)
MIC [3]: > 1000 µg/mL
MIC [4]: > 1000 µg/mL
MIC [5]: > 1000 µg/mL
MIC [6]: > 1000 µg/mL
MIC [7]: > 1000 µg/mL
MFC/MIC [8]: > 2
MFC [8]: > 1000 µg/mL
MIC [8]: 500 µg/mL (≈ 1.51 mM)
MIC [9]: > 1000 µg/mL
MIC ([10]; Lodderomyces parapsilosis): > 1000 µg/mL
MIC [11]: > 1000 µg/mL
MIC [12]: > 1000 µg/mL
MIC [13]: > 1000 µg/mL
MBC/MIC [14]: > 2
MBC [14]: > 1000 µg/mL
MIC [14]: 500 µg/mL (≈ 1.51 mM)
MBC/MIC [15]: 1
MBC ([15]; ATCC4617): 1000 µg/mL (≈ 3.03 mM)
MIC ([15]; ATCC4617): 1000 µg/mL (≈ 3.03 mM)
MIC [16]: > 1000 µg/mL
MIC [17]: > 1000 µg/mL
melting point: 230 °C
MIC [19]: > 1000 µg/mL
MBC [20]: > 1000 µg/mL
MIC [20]: 500 to 1000 µg/mL (≈ 1.51 to 3.03 mM)
